Our source for the pest or weed control values is patent US8865623B2, “Herbicidally active cyclic diones and derivatives thereof, processes for their preparation, compositions, and method of controlling weeds” (Syngenta Limited, priority 2009, dated 2014).

Holding throughout (type): in vivo
The test system of assay [1] is Alopecurus myosuroides (ALOMY). Nature of the assay: Pre-emergence herbicidal activity, glasshouse pot test. As to conditions: Alopecurus myosuroides, 312 h, Rate 250 g/ha, evaluated after 13 days, read-out: Pre-emergence activity ALOMY (100=total damage to plant; 0=no damage to plant). In outline:
(§1)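 After sowing in standard soil, pots were cultivated for one day (pre-emergence) or eight days (post-emergence), then sprayed. Plants were watered twice daily in the glasshouse, and damage was rated 13 days after treatment, 0 being none and 100 total.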

Assay [2] has as its system Avena fatua (AVEFA). The description is as above. The conditions noted are these: Avena fatua, 312 h, Rate 250 g/ha, evaluated after 13 days, read-out: Pre-emergence activity AVEFA (100=total damage to plant; 0=no damage to plant). In outline: as §1
The test system of assay [3] is Echinochloa crus-galli (ECHCG). Described as above. As to conditions: Echinochloa crus-galli, 312 h, Rate 250 g/ha, evaluated after 13 days, read-out: Pre-emergence activity ECHCG (100=total damage to plant; 0=no damage to plant). In outline: as §1
The test system of assay [4] is Lolium perenne (LOLPE). The assay is described as above. The conditions noted are these: Lolium perenne, 312 h, Rate 250 g/ha, evaluated after 13 days, read-out: Pre-emergence activity LOLPE (100=total damage to plant; 0=no damage to plant). In outline:
as §1

Assay [5] concerns Alopecurus myosuroides (ALOMY). The assay is described as follows: Post-emergence herbicidal activity, glasshouse pot test. As to conditions: Alopecurus myosuroides, 312 h, rate 250 g/ha, evaluated after 13 days, read-out: Post-emergence activity ALOMY (100=total damage to plant; 0=no damage to plant). In outline: as §1
In assay [6] the test system is Avena fatua (AVEFA). The assay is described as above. The conditions noted are these: Avena fatua, 312 h, rate 250 g/ha, evaluated after 13 days, read-out: Post-emergence activity AVEFA (100=total damage to plant; 0=no damage to plant). Summed up: as §1
For assay [7], the system named is Echinochloa crus-galli (ECHCG). The description is as above. The conditions noted are these: Echinochloa crus-galli, 312 h, rate 250 g/ha, evaluated after 13 days, read-out: Post-emergence activity ECHCG (100=total damage to plant; 0=no damage to plant). In outline:
as §1

Assay [8] concerns Lolium perenne (LOLPE). The description is as above. The conditions noted are these: Lolium perenne, 312 h, rate 250 g/ha, evaluated after 13 days, read-out: Post-emergence activity LOLPE (100=total damage to plant; 0=no damage to plant). Summed up: as §1

In the case of `CCc1ccc(Oc2cc(C)c(Cl)nn2)cc1C1=C(O)C(C)(C)OC(C)(C)C1=O` [Example A-121], the pest or weed control at 250 g/ha was 10% in assay [1] (pre-emergence spray); 0% in assay [2] (pre-emergence spray); 10% in assay [3] (pre-emergence spray); 0% in assay [4] (pre-emergence spray); 10% in assay [5] (glasshouse); 0% in assay [6] (glasshouse). The values for the pest or weed control at 250 g/ha in assay [7] (glasshouse) and in assay [8] (glasshouse) were 50% and 20%, respectively.

On to `CC1(C)OC(C)(C)C(O)=C(c2cc(Oc3ccc(Cl)cc3Cl)ccc2C2CC2)C1=O` [Example A-262], for which the pest or weed control at 250 g/ha is 30% in assay [1] (pre-emergence spray); 0% in assay [2] (pre-emergence spray); 70% in assay [3] (pre-emergence spray); 70% in assay [4] (pre-emergence spray); 80% in assay [5] (glasshouse); 50% in assay [6] (glasshouse). The pest or weed control at 250 g/ha in assay [7] (glasshouse) stood at 90%; in assay [8] (glasshouse), 60%.

Consider `CCc1ccc(Oc2cnc3ccc(Br)cc3n2)cc1C1=C(O)C(C)(C)OC(C)(C)C1=O` [Example A-104], for which the pest or weed control at 250 g/ha in assay [1] (pre-emergence spray) is 90%; in assay [2] (pre-emergence spray), 30%; in assay [3] (pre-emergence spray) it was 100%; in assay [4] (pre-emergence spray) it was 100%; in assay [5] (glasshouse), 90%; in assay [6] (glasshouse), 80%. For the same molecule, the pest or weed control at 250 g/ha turned out to be 100% in assay [7] (glasshouse) and 90% in assay [8] (glasshouse).

For the molecule `CCc1ccc(Oc2ccc(C#N)c(Cl)c2)cc1C1=C(O)CC2(CCOCC2)CC1=O` [Example A-277], the pest or weed control at 250 g/ha in assay [1] (pre-emergence spray) turned out to be 30%; in assay [2] (pre-emergence spray), 30%; in assay [3] (pre-emergence spray), 100%; in assay [4] (pre-emergence spray), 100%; in assay [5] (glasshouse), 30%; in assay [6] (glasshouse), 80%. The pest or weed control at 250 g/ha in assay [7] (glasshouse) and in assay [8] (glasshouse) was 100% in each case.

For the molecule `CCc1ccc(Oc2ccc3cc(Cl)ccc3n2)cc1C1=C(O)[C@H]2CC[C@H](C2)C1=O` [Example A-260], the pest or weed control at 250 g/ha worked out at 80% in assay [1] (pre-emergence spray); 0% in assay [2] (pre-emergence spray); 90% in assay [3] (pre-emergence spray); 90% in assay [4] (pre-emergence spray); 90% in assay [5] (glasshouse); 100% in assay [6] (glasshouse). The pest or weed control at 250 g/ha in assay [7] (glasshouse) was 90%; in assay [8] (glasshouse) it was 80%.

Turning to `CCc1ccc(Oc2nc3cc(Cl)ccc3s2)cc1C1=C(O)[C@H]2CC[C@H](C2)C1=O` [Example A-339], the pest or weed control at 250 g/ha in assay [1] (pre-emergence spray) was found to be 100%; in assay [2] (pre-emergence spray), 80%; in assay [3] (pre-emergence spray) it was 100%; in assay [4] (pre-emergence spray), 90%; in assay [5] (glasshouse), 100%; in assay [6] (glasshouse), 90%. Besides, the pest or weed control at 250 g/ha in assay [7] (glasshouse) and in assay [8] (glasshouse) was 100% in each case.

For `CCc1ccc(Oc2ncc(Cl)cc2C(F)(F)F)cc1C1=C(O)[C@@H]2CC[C@](C)(C1=O)C2(C)C` [Example A-329], the pest or weed control at 250 g/ha in assay [1] (pre-emergence spray) turned out to be 90%; in assay [2] (pre-emergence spray), 90%; in assay [3] (pre-emergence spray) it was 100%; in assay [4] (pre-emergence spray), 100%; in assay [5] (glasshouse), 80%; in assay [6] (glasshouse) it was 90%. Further, the pest or weed control at 250 g/ha stood at 100% in assay [7] (glasshouse) and 70% in assay [8] (glasshouse).

As for `CCc1ccc(Oc2ccc(Br)cc2Cl)cc1C1=C(O)CC2(CCOCC2)CC1=O` [Example A-189], the pest or weed control at 250 g/ha in assay [1] (pre-emergence spray) turned out to be 50%; in assay [2] (pre-emergence spray), 40%; in assay [3] (pre-emergence spray), 90%; in assay [4] (pre-emergence spray), 60%; in assay [5] (glasshouse), 90%; in assay [6] (glasshouse), 100%. Moreover, the pest or weed control at 250 g/ha turned out to be 100% in assay [7] (glasshouse) and 90% in assay [8] (glasshouse).

Take `CCc1ccc(Oc2cc(Cl)c3ccccc3n2)cc1C1=C(O)C(C)(C)OC(C)(C)C1=O` [Example A-251]: the pest or weed control at 250 g/ha in assay [1] (pre-emergence spray) is 40%; in assay [2] (pre-emergence spray), 20%; in assay [3] (pre-emergence spray), 100%; in assay [4] (pre-emergence spray), 80%; in assay [5] (glasshouse), 80%; in assay [6] (glasshouse) it was 30%. Further, the results for the pest or weed control at 250 g/ha in assay [7] (glasshouse) and in assay [8] (glasshouse) were 100% and 0%, respectively.

For the molecule `CC1(C)OC(C)(C)C(O)=C(c2cc(Oc3ncc(Cl)cc3Cl)ccc2C2CC2)C1=O` [Example A-364], the pest or weed control at 250 g/ha in assay [1] (pre-emergence) was found to be 70%; in assay [2] (pre-emergence), 60%; in assay [3] (pre-emergence), 100%; in assay [4] (pre-emergence) it was 90%; in assay [5] it was 100%; in assay [6] it was 90%. In addition, the pest or weed control at 250 g/ha in assay [7] came out at 100%; in assay [8] it was 90%.

Take `CCc1ccc(Oc2nc3ccc(OC)cc3s2)cc1C1=C(O)[C@@H]2CC[C@](C)(C1=O)C2(C)C` [Example A-326]: the pest or weed control at 250 g/ha was 30% in assay [1] (pre-emergence spray); 10% in assay [2] (pre-emergence spray); 70% in assay [3] (pre-emergence spray); 90% in assay [4] (pre-emergence spray); 30% in assay [5] (glasshouse); 90% in assay [6] (glasshouse). The values for the pest or weed control at 250 g/ha in assay [7] (glasshouse) and in assay [8] (glasshouse) were 100% and 90%, respectively.

For the molecule `CCc1ccc(Oc2ncc(Cl)cc2Cl)cc1C1=C(O)CC(C)(C)CC1=O` [Example A-84], the pest or weed control at 250 g/ha in assay [1] (pre-emergence spray) was 70%; in assay [2] (pre-emergence spray) it was 60%; in assay [3] (pre-emergence spray), 100%; in assay [4] (pre-emergence spray), 100%; in assay [5] (glasshouse), 100%; in assay [6] (glasshouse), 50%. Also, the pest or weed control at 250 g/ha amounted to 100% in assay [7] (glasshouse) and 90% in assay [8] (glasshouse).

For the molecule `CCc1ccc(Oc2ccc(F)cc2)cc1C1=C(O)[C@@H]2CC[C@](C)(C1=O)C2(C)C` [Example A-239], the pest or weed control at 250 g/ha in assay [1] (pre-emergence spray) was 20%; in assay [2] (pre-emergence spray), 0%; in assay [3] (pre-emergence spray) it was 90%; in assay [4] (pre-emergence spray), 60%; in assay [5] (glasshouse) it was 20%; in assay [6] (glasshouse) it was 10%. Also, the pest or weed control at 250 g/ha turned out to be 70% in assay [7] (glasshouse) and 30% in assay [8] (glasshouse).

As for `CCc1ccc(Oc2ccc(C(F)(F)F)cc2Cl)cc1C1=C(O)CC2(CCOCC2)CC1=O` [Example A-271], the pest or weed control at 250 g/ha was 90% in assay [1] (pre-emergence spray); 50% in assay [2] (pre-emergence spray); 100% in assay [3] (pre-emergence spray); 90% in assay [4] (pre-emergence spray); 90% in assay [5] (glasshouse); 90% in assay [6] (glasshouse). Besides, the values for the pest or weed control at 250 g/ha in assay [7] (glasshouse) and in assay [8] (glasshouse) were 100% and 70%, respectively.

Consider `CCc1ccc(Oc2ccc(Cl)cc2F)cc1C1=C(O)CC(C)(C)CC1=O` [Example A-30], for which the pest or weed control at 250 g/ha in assay [1] (pre-emergence spray) is 70%; in assay [2] (pre-emergence spray), 50%; in assay [3] (pre-emergence spray), 80%; in assay [4] (pre-emergence spray), 70%; in assay [5] (glasshouse) it was 70%; in assay [6] (glasshouse), 60%. In addition, the results for the pest or weed control at 250 g/ha in assay [7] (glasshouse) and in assay [8] (glasshouse) were 100% and 60%, respectively.
